Values joined by “and” are separate entries in the source; they are usually repeats but may differ in a detail not shown here. Equal entries are not always repeated.
Tests used:
[1] = system: superfused pituitary cell system; experiment: In vitro GH release, superfused pituitary cell system; type: cell-based, rat
Protocol: The compounds of the present invention were tested both in vitro in rat cell culture and in vivo in rats to determine GHRH activity. The protocols are as follows:
Twenty-four adult male or female Sprague-Dawley strain rats were decapitated for each experiment. After posterior lobes were removed, the anterior pituitaries were cut into small pieces and incubated in a Dubnoff incubator for 45 minutes at 37° C. in 10 ml. of oxygenated Medium 199 (GIBCO) containing 0.5% collagenase (Sigma Type 1), 0.25% bovine serum albumin (BSA) (Sigma RIA grade), and 5 μg./ml. Gentamicin Sulphate (Sigma). After this incubation, there were no apparent changes in the appearance of the tissue. However, the fragments could be easily dipsersed into single cells by repeated suction and expulsion from a Gilson Pipetman. After 30 to 60 Pipetman operations, the tissue fell apart; a second collagenase incubation was not usually necessary. The cell suspension was centrifuged at room temperature for 10 minutes at […]. The cell pellet was then resuspended in 1.0 ml. of medium. A small aliquot was diluted for counting the cells, and the rest or one suspension was divided into 2 equal volumes. Each volume (containing about 5× 10^6 cells, usually between 3.5 and 7.0×10^6) was mixed with 0.5 ml. Sephadex G-15 which had been equilibrated with previously oxygenated medium. The mixture of pituitary cells and Sephadex was transferred into 2 chambers of the superfusion apparatus and perfused with the medium. […]
ACTH radioimmunoassays were performed on 100 μl aliquots of undiluted superfusion medium essentially as described elsewhere (14); however, the separation of bound and free ACTH was accomplished by a polyethylene glycol facilitated second antibody method. Rat GH was measured in aliquots of undiluted or diluted superfusates to determine either basal or stimulated secretion. […]

release of pituitary GH = experiment: In vivo release of pituitary GH after one single i.v. injection in female rats; design: species or system rat; details: for Relative Potency (based on the effect of hpGHRH at the actual time) / Responses in plasma GH in ng GH/ml: 1.0 ug/(female) rat i.v.; for Absolute Potency (based on the average value of the four samples at -1 min.): average GH level at -1 min. 63.5 ng GH/ml plasma
Protocol: Adult female rats were used and were anesthetized with pentobarbital (6 mg/100 g, b.w.), injected i/p. 20 minutes after the injection of pentobarbital; blood samples were taken from the jugular vein (pretreated level) and immediately thereafter hpGH-RH^1-29 (as a control) or GH-RH^1-29 analogs were injected i.v. Blood samples were taken from the jugular vein 5, 15, 60 minutes after the injection. The blood samples were centrifuged, plasma was removed and the GH level was measured by RIA.
In vivo Effects of synthetic GHRH analogs on the release
of pituitary GH following one single i.v. injection of 1.0

release of GH = experiment: In vivo release of GH in male testosterone primed rats, 4-point assay method; design: species or system rat; details: i.v., individual values
Protocol: In vivo effect of synthetic GHRH analogs on the release of
GH in male testosterone primed rats. Results were
calculated by the 4-point assay method.
Doses injected are in μg/100 g. b.w., i.v.

GH-RH^1-29: standard/control: fragment of the first 29 residues of human growth hormone releasing factor, amide
Released GH Level Average ([1]; peptides administered for 3 minutes at 10M^-9 Concentration): 40.00 ng/mL | Released GH Level ([1]; peptides administered for 3 minutes at 10M^-9 Concentration, individual values): 62.50 ng/mL and 42.50 ng/mL and 20.50 ng/mL and 34.50 ng/mL | Potency % ([1]; relative to GH-RH^1-29 standard, 3 minutes at 10M^-9 Concentration): 100% | Relative Potency (based on the effect of hpGHRH at the actual time) (release of pituitary GH; time +5 min): 100% | Responses in plasma GH in ng GH/ml (release of pituitary GH; time +5 min): 248 ng/mL | Absolute Potency (based on the average value of the four samples at -1 min.) (release of pituitary GH; time +5 min): 390% | Relative Potency (based on the effect of hpGHRH at the actual time) (release of pituitary GH; time +15 min): 100% | Responses in plasma GH in ng GH/ml (release of pituitary GH; time +15 min): 137 ng/mL | Absolute Potency (based on the average value of the four samples at -1 min.) (release of pituitary GH; time +15 min): 215% | Relative Potency (based on the effect of hpGHRH at the actual time) (release of pituitary GH; time +60 min): 100% | Responses in plasma GH in ng GH/ml (release of pituitary GH; time +60 min): 29 ng/mL | Absolute Potency (based on the average value of the four samples at -1 min.) (release of pituitary GH; time +60 min): 45% | Relative Potency (based on the effect of hpGHRH at the actual time) (release of pituitary GH; time -1 min (pretreated level)): 100% | Responses in plasma GH in ng GH/ml (release of pituitary GH; time -1 min (pretreated level)): 66 ng/mL | Absolute Potency (based on the average value of the four samples at -1 min.) (release of pituitary GH; time -1 min (pretreated level)): 103% | plasma Gh level (release of GH; 5 minutes after injection, dose 0.05 μg/100 g. b.w.): 160 ng·mL and 540 ng·mL and 208 ng·mL and 191 ng·mL and 450 ng·mL and 286 ng·mL and 397 ng·mL | plasma Gh level (release of GH; 5 minutes after injection, dose 0.2 μg/100 g. b.w.): 370 ng·mL and 620 ng·mL and 540 ng·mL and 610 ng·mL and 870 ng·mL and 410 ng·mL and 560 ng·mL | plasma Gh level (release of GH; 15 minutes after injection, dose 0.05 μg/100 g. b.w.): 65 ng·mL and 241 ng·mL and 97 ng·mL and 70 ng·mL and 161 ng·mL and 145 ng·mL and 149 ng·mL | plasma Gh level (release of GH; 15 minutes after injection, dose 0.2 μg/100 g. b.w.): 112 ng·mL and 280 ng·mL and 199 ng·mL and 261 ng·mL and 510 ng·mL and 161 ng·mL and 207 ng·mL

Reference: patent US4914189A, “Synthetic GHRH analogs” (The Adminstrators of the Tulane Educational Fund, priority 1987, dated 1990)
